Key:
[1] = target: T1, Steroid 17-alpha-hydroxylase/17,20 lyase (Homo sapiens, UniProt P05093); test: Inhibition of CYP17 in human testicular microsomes using 17alpha-hydroxypregnenolone as substrate assessed as decrease in DHEA levels after 90 mins by ELISA; parameters: species or system Testis
T1 sequence (P05093 whole entry): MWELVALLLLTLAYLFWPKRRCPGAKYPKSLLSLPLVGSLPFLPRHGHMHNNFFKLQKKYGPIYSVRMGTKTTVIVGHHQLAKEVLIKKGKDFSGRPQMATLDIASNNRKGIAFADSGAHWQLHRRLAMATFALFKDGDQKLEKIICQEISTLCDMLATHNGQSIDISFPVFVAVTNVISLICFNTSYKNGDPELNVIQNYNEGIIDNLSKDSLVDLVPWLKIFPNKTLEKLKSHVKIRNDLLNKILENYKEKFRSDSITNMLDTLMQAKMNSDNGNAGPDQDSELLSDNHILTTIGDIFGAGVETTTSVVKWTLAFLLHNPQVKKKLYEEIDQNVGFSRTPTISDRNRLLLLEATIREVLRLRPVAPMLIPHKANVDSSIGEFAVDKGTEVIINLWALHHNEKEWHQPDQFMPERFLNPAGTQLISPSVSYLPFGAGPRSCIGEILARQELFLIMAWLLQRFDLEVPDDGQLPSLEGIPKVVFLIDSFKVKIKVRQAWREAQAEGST

[2] = target: T1, Steroid 17-alpha-hydroxylase/17,20 lyase; test: Inhibition of CYP17 in human testicular microsomes using 17alpha-hydroxypregnenolone as substrate assessed as decrease in DHEA levels at 10 nM after 90 mins by ELISA relative to control; parameters: species or system Testis; settings: 1.5 h
[3] = Half life in human liver microsomes at 1 uM by LC-MS/MS analysis
[4] = target: T2, CYP21 (steroid 21-hydroxylase) (Homo sapiens, UniProt P08686); test: Inhibition of human CYP21 transfected in HEK293 cells assessed as decrease in conversion of progesterone to 11-deoxycorticosterone at 100 nM preincubated for 5 hrs followed by progesterone addition measured after 20 hrs by ELISA relative to control; format: cell-based; settings: HEK293 cells transfected with human CYP21, probe progesterone
T2 sequence (P08686 whole entry): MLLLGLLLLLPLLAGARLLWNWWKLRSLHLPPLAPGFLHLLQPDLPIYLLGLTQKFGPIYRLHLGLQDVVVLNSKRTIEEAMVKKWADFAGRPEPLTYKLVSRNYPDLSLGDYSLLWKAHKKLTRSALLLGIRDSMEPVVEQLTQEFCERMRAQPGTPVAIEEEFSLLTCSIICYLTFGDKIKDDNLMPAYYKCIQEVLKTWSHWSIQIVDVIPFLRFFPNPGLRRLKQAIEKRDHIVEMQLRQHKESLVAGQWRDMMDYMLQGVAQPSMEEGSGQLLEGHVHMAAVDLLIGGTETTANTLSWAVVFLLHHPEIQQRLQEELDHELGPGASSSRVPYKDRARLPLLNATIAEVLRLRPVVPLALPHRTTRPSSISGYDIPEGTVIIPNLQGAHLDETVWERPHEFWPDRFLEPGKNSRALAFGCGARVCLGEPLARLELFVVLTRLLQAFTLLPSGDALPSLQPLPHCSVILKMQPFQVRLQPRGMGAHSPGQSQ

[5] = target: T2, CYP21 (steroid 21-hydroxylase); test: Inhibition of human CYP21 transfected in HEK293 cells assessed as decrease in conversion of progesterone to 11-deoxycorticosterone preincubated for 5 hrs followed by progesterone addition measured after 20 hrs by ELISA; format: cell-based; parameters: concentration or dose not given beside the values; settings: HEK293 cells transfected with human CYP21, probe progesterone
[6] = Half life in rat liver microsomes at 1 uM by LC-MS/MS analysis
[7] = target: T1, Steroid 17-alpha-hydroxylase/17,20 lyase; test: Inhibition of CYP17 in human H295R cells assessed as decrease in testosterone levels after 24 hrs by ELISA; format: cell-based
CYP11B = target: T3, CYP11B (Rattus norvegicus, UniProt P15393+P30099); test: Inhibition of Sprague-Dawley rat adrenal mitochondrial CYP11B assessed as decrease in conversion of 11-deoxycortisol to cortisol at 100 nM incubated for 60 mins by ELISA relative to control; format: protein assay; settings: adrenal mitochondria, probe 11-deoxycortisol
T3 sequence (P30099 whole entry): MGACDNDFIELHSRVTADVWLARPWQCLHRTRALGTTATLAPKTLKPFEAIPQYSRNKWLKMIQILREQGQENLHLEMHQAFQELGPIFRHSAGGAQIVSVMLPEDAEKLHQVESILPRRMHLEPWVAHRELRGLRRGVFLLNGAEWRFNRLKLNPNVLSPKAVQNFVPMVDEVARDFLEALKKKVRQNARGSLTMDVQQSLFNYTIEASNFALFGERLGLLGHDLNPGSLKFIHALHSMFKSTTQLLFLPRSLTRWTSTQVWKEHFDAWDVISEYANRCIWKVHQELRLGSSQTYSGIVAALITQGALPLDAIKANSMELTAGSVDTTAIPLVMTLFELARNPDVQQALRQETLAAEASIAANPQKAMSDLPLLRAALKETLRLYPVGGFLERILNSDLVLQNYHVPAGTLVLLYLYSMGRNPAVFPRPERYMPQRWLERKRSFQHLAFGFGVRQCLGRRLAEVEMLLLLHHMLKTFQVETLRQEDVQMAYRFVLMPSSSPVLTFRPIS
T3 sequence (P15393 whole entry): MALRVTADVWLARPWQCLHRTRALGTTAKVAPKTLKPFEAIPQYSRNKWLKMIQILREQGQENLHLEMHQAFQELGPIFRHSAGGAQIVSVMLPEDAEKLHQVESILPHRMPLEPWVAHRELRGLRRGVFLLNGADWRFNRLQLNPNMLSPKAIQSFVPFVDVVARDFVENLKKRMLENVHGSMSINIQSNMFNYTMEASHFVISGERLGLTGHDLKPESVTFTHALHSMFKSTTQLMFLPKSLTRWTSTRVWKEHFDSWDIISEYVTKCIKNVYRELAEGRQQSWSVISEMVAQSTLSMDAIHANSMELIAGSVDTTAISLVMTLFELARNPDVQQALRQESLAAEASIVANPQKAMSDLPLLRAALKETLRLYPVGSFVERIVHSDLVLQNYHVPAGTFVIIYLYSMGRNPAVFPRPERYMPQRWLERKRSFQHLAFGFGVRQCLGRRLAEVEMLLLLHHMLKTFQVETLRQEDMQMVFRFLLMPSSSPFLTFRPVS

[8] = target: T1, Steroid 17-alpha-hydroxylase/17,20 lyase; test: Inhibition of CYP17 in human testicular microsomes using 17alpha-hydroxypregnenolone as substrate assessed as decrease in DHEA levels at 1 nM after 90 mins by ELISA relative to control; parameters: species or system Testis

| SMILES | IC50 [1] | inhibition at 0.01 µM [2] | half-life at 1 µM [3] | inhibition at 20 h, 0.1 µM [4] | inhibition at 20 h [5] | half-life at 1 µM [6] | IC50 [7] | inhibition at 1 h, 0.1 µM (CYP11B) | IC50 [8] |
| --- | --- | --- | --- | --- | --- | --- | --- | --- | --- |
| C[C@]12CCCC(=O)CC1=CC[C@@H]1[C@@H]2CC[C@]2(C)C(n3ccnc3)=CC[C@@H]12 | ≤ 11 nM | ≥ 80% | 1 to 50 min | ≥ 30% | – | – | – | – | – |
| CN1CC[C@@]2(C)C(=CC1=O)CC[C@H]1C3=CC=C(c4cnccn4)[C@@]3(C)CC[C@@H]12 | ≤ 11 nM | ≥ 80% | – | ≥ 30% | 10 to 50% | – | – | – | – |
| COc1cncc(C2=CC=C3[C@@H]4CCC5=CC(=O)CC[C@]5(C)[C@H]4CC[C@]23C)c1 | – | 50 to 80% | 1 to 50 min | ≥ 30% | – | – | – | – | – |
| C[C@]12CCNC(=O)C=C1CC[C@@H]1[C@@H]2CC[C@]2(C)C(n3ccnn3)=CC[C@@H]12 | – | ≥ 80% | ≥ 50 min | < 30% | – | 1 to 10 min | – | – | – |
| COc1cncc(C2=CC=C3[C@@H]4CCC5=CC(=O)NCC[C@]5(C)[C@H]4CC[C@]23C)c1 | ≤ 11 nM | 50 to 80% | – | ≥ 30% | – | – | – | – | – |
| CCCOc1cncc(C2=CC[C@H]3[C@@H]4CCC5=CC(=O)NCC[C@]5(C)[C@H]4CC[C@]23C)c1 | ≤ 11 nM | 50 to 80% | – | < 30% | – | – | – | – | – |
| C[C@]12CCCC(=O)CC1=CC[C@@H]1[C@@H]2CC[C@]2(C)C(c3cnccn3)=CC[C@@H]12 | – | ≥ 80% | 1 to 50 min | ≥ 30% | – | – | – | – | – |
| C[C@]12CC[C@H]3[C@@H](CC[C@H]4CC(=O)NCC[C@@]43C)C1=CC=C2c1cccnc1 | ≤ 11 nM | ≥ 80% | 1 to 50 min | < 30% | – | 1 to 10 min | – | – | – |
| Cc1ccncc1C1=CC[C@H]2[C@@H]3CC[C@H]4CC(=O)NCC[C@]4(C)[C@H]3CC[C@]12C | – | – | – | – | 10 to 50% | – | ≤ 15 nM | < 32% | – |
| CC(=O)N[C@@H]1CC[C@@]2(C)C(=CC[C@@H]3[C@@H]2CC[C@]2(C)C(n4ccnc4)=CC[C@@H]32)C1 | ≤ 11 nM | – | ≥ 50 min | – | ≥ 50% | – | ≤ 15 nM | ≥ 50% | – |
| COC(=O)N1CCC[C@@]2(C)[C@@H](CC[C@@H]3[C@@H]2CC[C@]2(C)C(n4ccnc4)=CC[C@@H]32)C1 | – | – | – | – | 10 to 50% | – | – | ≥ 50% | > 100 nM |
| CCc1cncc(C2=CC[C@H]3[C@@H]4CCC5=CC(=O)N(C)CC[C@]5(C)[C@H]4CC[C@]23C)c1 | – | 50 to 80% | – | ≥ 30% | – | – | – | – | – |
| C[C@]12CC[C@H]3[C@@H](CC[C@H]4CC(=O)NCC[C@@]43C)C1=CC=C2n1ccnc1 | ≤ 11 nM | ≥ 80% | 1 to 50 min | ≥ 30% | – | – | – | – | – |
| Cc1cncc(C2=CC=C3[C@@H]4CCC5=CC(=O)N(C)CC[C@]5(C)[C@H]4CC[C@]23C)c1 | – | 50 to 80% | – | < 30% | – | – | – | – | – |
| C[C@]12CCNC(=O)C=C1CC[C@@H]1[C@@H]2CC[C@]2(C)C(c3cnccn3)=CC[C@@H]12 | – | ≥ 80% | 1 to 10 min | ≥ 30% | – | 1 to 10 min | – | – | – |
| C[C@]12CC[C@H]3[C@@H](CCN4C(=O)CCCC[C@]34C)[C@@H]1CC=C2c1cccnc1 | ≤ 11 nM | 50 to 80% | – | < 30% | – | – | – | – | – |
| COc1cncc(C2=CC=C3[C@@H]4CCC5=CC(=O)N(C)CC[C@]5(C)[C@H]4CC[C@]23C)c1 | ≤ 11 nM | ≥ 80% | 1 to 50 min | ≥ 30% | – | – | – | – | – |
| C[C@]12CCNC(=O)C=C1CC[C@@H]1[C@@H]2CC[C@]2(C)C(c3cncnc3)=CC[C@@H]12 | – | 50 to 80% | 1 to 10 min | ≥ 30% | – | 1 to 10 min | – | – | – |
| C[C@]12CC[C@H]3[C@@H](CCC4=C/C(=N/O)CC[C@@]43C)C1=CC=C2c1cccnc1 | ≤ 11 nM | – | 1 to 50 min | < 30% | ≥ 50% | – | – | – | – |
| CC1C[C@H]2C3=CC=C(c4cncc(N)c4)[C@@]3(C)CC[C@@H]2[C@@]2(C)CCC(=O)C=C12 (stereo partly drawn) | ≤ 11 nM | – | – | < 30% | – | – | – | – | – |
| Cc1ccncc1C1=CCC2[C@@H]3CN(C)C4=CC(=O)CC[C@]4(C)[C@H]3CC[C@]12C (single isomer, unassigned) | – | – | – | – | 10 to 50% | – | ≤ 15 nM | ≥ 50% | – |
| C[C@]12CC[C@H](O)CC1=CC[C@@H]1[C@@H]2CC[C@]2(C)C(c3cccnc3)=CC[C@@H]12 [ABIRATERONE] | ≤ 11 nM | ≥ 80% | 1 to 50 min | – | ≥ 50% | – | ≤ 15 nM | < 32% | – |

Source: ChEMBL document CHEMBL3882724 (2013)
